Measurements reported in patent US9974795B2, “Anticancer agent composition” (CARNA BIOSCIENCES, INC., priority 2014, dated 2018).

How the values were obtained:
[1] = tested on: Colo205 cells; assay: FACS of PI-stained cells: cell cycle and rate of cell death (SubG1), Colo205; type: cell-based; conditions: for cell death induced by Cdc7 inhibitor on coadministration with Wee1 inhibitor MK-1775: Cdc7 inhibitor 0.1 μM, MK-1775 0.25, 0.5, 0.75 μM, FIG. 1 / FIG. 5; for cell death on coadministration with Chk1 inhibitor SCH900776: Cdc7 inhibitor 0.3 μM or 0.1 μM, SCH900776 3.3 μM, FIG. 9; for cell death on coadministration with Chk1 inhibitor UCN-01 / cell death on coadministration with Hsp90 inhibitor geldanamycin: Cdc7 inhibitor 0.1, 0.03 or 0.3 μM; for cell death on coadministration with Chk1 inhibitor UCN-01: UCN-01 333 nM, FIG. 10; for cell death on coadministration with Hsp90 inhibitor geldanamycin: geldanamycin 10 nM or 33 nM, FIG. 11
Procedure: (§1) COLO205 (RCB2127, RIKEN BRC) was cultured in a 10-cm dish using an RPMI-1640 medium (Sigma-Aldrich Corp., R8758) supplemented with 10% FCS (Equitech-Bio, Inc.) and 5% penicillin-streptomycin (GIBCO/Thermo Fisher Scientific, Inc., 15140). The medium was removed from the cells in a well grown state (70 to 90% confluent), and the cells were dissociated from the dish by treatment with 2 mL of trypsin (TrypL Express, manufactured by GIBCO/Thermo Fisher Scientific, Inc.) and recovered into the same medium as above.
(§2) The recovered cells of each line were seeded at 2.5×10^5 cells/ml/well to a 6-well plate (BD Falcon, catalog No. 353046). The cells were cultured overnight in a 5% CO2 incubator. On the next day, 500 μl of a medium supplemented with 1.5 μl of a stock solution having a 1000-fold concentration of each compound to be added was added to each well, […]
(§3) After the reaction of the cells with the compound for 48 to 72 hours, the cells were dissociated from the well by treatment with trypsin (TrypL Express, manufactured by GIBCO/Thermo Fisher Scientific, Inc.) and washed with DPBS. Then, 1 ml of cold ethanol was added thereto, and the cells were stored at −30° C. until staining. The cells were washed with DPBS once before staining and left standing with a propidium iodide (PI) solution at room temperature for 30 minutes or longer in the dark. The cells stained with PI were studied for the cell cycle and the rate of cell death indicated by SubG1 using FACS.

[2] = tested on: NHDF cells; assay: FACS of PI-stained cells: cell death, normal NHDF cells; type: cell-based; conditions: Cdc7 inhibitor 0.1 μM, MK-1775 0.25, 0.5, 0.75 μM, FIG. 2
Procedure: NHDF cells (Cryo NHDF-NeoCC-2509, manufactured by Sanko Junyaku Co., Ltd.) were cultured in a 10-cm dish using a medium (Brett Kit FGM2, CLCC-3132). The medium was removed from the NHDF cells in a well grown state (70 to 90% confluent), and the cells were washed with 5 mL of HEPES-buffered saline in a subculture reagent set (CLCC-5034, manufactured by Sanko Junyaku Co., Ltd.).
After removal of the HEPES-buffered saline, the whole dish was covered with 3 mL of a trypsin/EDTA solution included in the set. The cells were dissociated from the dish by giving a small impact on the side of the dish with taps of a hand. Then, 3 mL of a trypsin-neutralizing solution included in the set was added to the cells, which were then recovered.
as §2
After the reaction of the cells with the compound for 48 to 72 hours, the cells were dissociated from the well by treatment with trypsin (TrypL Express, manufactured by GIBCO/Thermo Fisher Scientific, Inc.) and washed with DPBS. […]

[3] = tested on: MDA-MB-231 cells; assay: Cell growth inhibition (number of nuclei, Hoechst 33342) with BLISS score evaluation; type: cell-based, human; conditions: 72 hours, Cdc7 inhibitor 19.5 to 10000 nM, MK-1775 7.81 to 1000 nM, FIGS. 12-15
Procedure: The BLISS scoring is a criterion often used in the evaluation of the synergistic effect of drugs used in combination (Borisy et al., Proc. Natl. Acad. Sci. USA. 100 (13): 7977-7982 (2003); and Buck et al., Mol. Cancer. Ther. 5 (11) (2006)). This BLISS scoring was used to analyze the effect of the Cdc7 inhibitor and the Wee1 inhibitor used in combination on the inhibition of cancer cell growth. […]
After the addition of the compounds, the cells were incubated for 72 hours. […] Then, the number of nuclei (the number of cells) was measured using a cell image analyzer (ArrayScan VTI HCS Reader, Thermo Fischer Scientific, Inc.) (Ex/Em=350/461 nm).
After 72 hours, the average number from the control wells was used as the number of untreated control cells (Gunt72), and the average number from the compound-treated wells was used as the number of compound-treated cells (G72). Wells in which the medium was merely replaced 24 hours after the cell inoculation were counted as an initial value and used as the initial number of cells (G0). […]
Assuming that the first test compound and the second test compound each acted as a single agent (i.e., the rate of cell growth when the concentration of either of the compounds was 0), the theoretical BLISS independence (BLISSin) of each well can be calculated according to the following expression: BLISSin=G(First test compound)×G(Second test compound) […]

[4] = tested on: Panc-1 cells (pancreatic cancer cell line); assay: FACS of PI-stained cells: cell death, Panc-1 cells; type: cell-based; conditions: Cdc7 inhibitor 0.1 μM, MK-1775 0.5 and 0.75 μM, FIG. 3
Procedure: as §1, with “Panc-1 (ATCC, CRL-1469)” for “COLO205 (RCB2127, RIKEN BRC)”, “a D-MEM” for “an RPMI-1640”, “D5796)” for “R8758)”
as §2
as §3, with “The cells stained with PI were studied for the cell cycle and the rate of cell death indicated by SubG1 using FACS.” left out

[5] = Colo205, Cdc7 inhibitor 0.1 μM or 0.3 μM, MK-1775 0.5 μM, FIG. 8

C=CCn1c(=O)c2cnc(Nc3ccc(N4CCN(C)CC4)cc3)nc2n1-c1cccc(C(C)(C)O)n1 [MK-1775, reference compound]
proportion of cells in the M-phase ([1]; MK-1775 0.1 to 1 μM): increased

CC(C)OC(=O)C1=C(NN2CCOCC2)OC(=Cc2c[nH]c3ncccc23)C1=O [compound (I-A), isopropyl 5-[(1H-pyrrolo[2,3-b]pyridin-3-yl)methylene]-2-(morpholinoamino)-4-oxo-4,5-dihydrofuran-3-carboxylate]
cell death induced by Cdc7 inhibitor on coadministration with Wee1 inhibitor MK-1775 ([1]; Colo205): synergistically increased

CCOC(=O)C1=C(N2CCc3ccc(OC)cc3C2)O/C(=C\c2c[nH]c3ncccc23)C1=O [compound (I-B), ethyl 5-[(1H-pyrrolo[2,3-b]pyridin-3-yl)methylene]-2-(7-methoxy-3,4-dihydroisoquinolin-2(1H)-yl)-4-oxo-4,5-dihydrofuran-3-carboxylate]
cell death on coadministration with MK-1775 ([1]; Colo205, compound (I-B) 0.3 μM, FIG. 6): synergistically increased

CC(C)OC(=O)C1=C(NN2CCN(CC(F)(F)F)CC2)O/C(=C\c2c[nH]c3ncccc23)C1=O [compound (I-C), isopropyl 5-[(1H-pyrrolo[2,3-b]pyridin-3-yl)methylene]-4-oxo-2-{[4-(2,2,2-trifluoroethyl)piperazinyl]amino}-4,5-dihydrofuran-3-carboxylate]
cell death on coadministration with MK-1775 ([1]; Colo205, compound (I-C) 0.1 μM or 0.3 μM, FIG. 7): synergistically increased

CCOC(=O)C1=C(NN2CCN(CC(F)(F)F)CC2)O/C(=C\c2c[nH]c3ncccc23)C1=O [compound (I-D), ethyl 5-[(1H-pyrrolo[2,3-b]pyridin-3-yl)methylene]-4-oxo-2-{[4-(2,2,2-trifluoroethyl)piperazinyl]amino}-4,5-dihydrofuran-3-carboxylate]
cytotoxicity to normal cells on addition of MK-1775 [2]: no increase
inhibition of cancer cell growth in combined use with MK-1775 (BLISS score) [3]: synergistically inhibits
cell death induced by Cdc7 inhibitor on coadministration with Wee1 inhibitor MK-1775 ([1]; Colo205): synergistically increased
cell death on coadministration with Chk1 inhibitor SCH900776 ([1]; Colo205): synergistically increased
cell death on coadministration with Chk1 inhibitor UCN-01 ([1]; Colo205): synergistically increased
cell death on coadministration with Hsp90 inhibitor geldanamycin ([1]; Colo205): synergistically increased
cell death induced by Cdc7 inhibitor on coadministration with MK-1775 [4]: synergistically increased

O=C(OCC1CC1)C1=C(NN2CCOCC2)O/C(=C\c2c[nH]c3ncccc23)C1=O [compound (I-E), cyclopropylmethyl 5-[(1H-pyrrolo[2,3-b]pyridin-3-yl)methylene]-2-(morpholinoamino)-4-oxo-4,5-dihydrofuran-3-carboxylate]
cytotoxicity to normal cells on addition of MK-1775 [2]: no increase
inhibition of cancer cell growth in combined use with MK-1775 (BLISS score) [3]: synergistically inhibits
cell death induced by Cdc7 inhibitor on coadministration with Wee1 inhibitor MK-1775 ([1]; Colo205): synergistically increased
cell death on coadministration with Chk1 inhibitor SCH900776 ([1]; Colo205): synergistically increased
cell death on coadministration with Chk1 inhibitor UCN-01 ([1]; Colo205): synergistically increased
cell death on coadministration with Hsp90 inhibitor geldanamycin ([1]; Colo205): synergistically increased
cell death on coadministration with MK-1775, varied composition ([1]; Colo205, compound (I-E):MK-1775 = 1:100 to 3:1 (ratio by μM), FIG. 4): sufficiently synergistically increased
cell death induced by Cdc7 inhibitor on coadministration with MK-1775 [4]: synergistically increased

O=C1NCCc2[nH]c(-c3ccncc3)cc21 [compound (I-F), 2-(pyridin-4-yl)-1,5,6,7-tetrahydro-4H-pyrrolo[3,2-c]pyridinone, reference compound]
cell death on coadministration with MK-1775 [1, 5]: synergistically increased

NC(=O)c1cc(-c2ccnc(N)n2)[nH]c1-c1ccc(Cl)cc1Cl [compound (I-G), 5-(2-amino-pyrimidin-4-yl)-2-(2,4-dichloro-phenyl)-1H-pyrrole-3-carboxylic acid amide, reference compound]
cell death on coadministration with MK-1775 [1, 5]: synergistically increased
